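Each compound was tested at five concentrations against cells in 96-well plates for 48 hours. GI50 is the concentration that inhibits growth by half.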 The source made the active and inactive calls. No stated cut-off is given here; in the data, active = GI50 up to about 1.1 µM and inactive = higher.
How the values were obtained:
Assay in all cases: growth of human tumour cells (NCI), 48 h
786-0 = system: 786-0
A549 = system: A549
ACHN = system: ACHN
BT-549 = system: BT-549
CAKI-1 = system: CAKI-1
CCRF-CEM = system: CCRF-CEM
COLO 205 = system: COLO 205
DU-145 = system: DU-145
EKVX = system: EKVX
HCC 2998 = system: HCC 2998
HCT-116 = system: HCT-116
HCT-15 = system: HCT-15
HL-60 = system: HL-60
HOP-62 = system: HOP-62
HOP-92 = system: HOP-92
HT-29 = system: HT-29
Hs-578T = system: Hs-578T
IGROV-1 = system: IGROV-1
KM12 = system: KM12
LOX IMVI = system: LOX IMVI
M14 = system: M14
MCF7 = system: MCF7
MDA-MB-231 = system: MDA-MB-231
MDA-MB-435 = system: MDA-MB-435
MDA-N = system: MDA-N
MOLT-4 = system: MOLT-4
NCI-H23 = system: NCI-H23
NCI-H460 = system: NCI-H460
NCI-H522 = system: NCI-H522
NCI/ADR-RES = system: NCI/ADR-RES
OVCAR-3 = system: OVCAR-3
OVCAR-4 = system: OVCAR-4
OVCAR-5 = system: OVCAR-5
OVCAR-8 = system: OVCAR-8
PC-3 = system: PC-3
RPMI-8226 = system: RPMI-8226
SF-268 = system: SF-268
SF-539 = system: SF-539
SK-MEL-28 = system: SK-MEL-28
SK-MEL-2 = system: SK-MEL-2
SK-MEL-5 = system: SK-MEL-5
SN12C = system: SN12C
SNB-19 = system: SNB-19
SNB-75 = system: SNB-75
SR = system: SR
SW-620 = system: SW-620
T47D = system: T47D
TK-10 = system: TK-10
U-251 = system: U-251
UACC-257 = system: UACC-257
UACC-62 = system: UACC-62
UO-31 = system: UO-31
K562 = system: K562
Malme-3M = system: Malme-3M
RXF 393 = system: RXF 393
SF-295 = system: SF-295
SK-OV-3 = system: SK-OV-3

Q: What does the source list for `O=C1/C(=C/c2ccc(OC(=O)c3ccc(Cl)cc3)cc2)CCC/C1=C\c1ccc(OC(=O)c2ccc(Cl)cc2)cc1`?
A: GI50 (786-0): 55 µM (inactive); GI50 (A549): > 100 µM (inactive); GI50 (ACHN): > 100 µM (inactive); GI50 (BT-549): > 100 µM (inactive); GI50 (CAKI-1): > 100 µM (inactive); GI50 (CCRF-CEM): > 100 µM (inactive); GI50 (COLO 205): > 100 µM (inactive); GI50 (DU-145): > 100 µM (inactive); GI50 (EKVX): > 100 µM (inactive); GI50 (HCC 2998): > 100 µM (inactive); GI50 (HCT-116): > 100 µM (inactive); GI50 (HCT-15): > 100 µM; GI50 (HL-60): > 100 µM (inactive); GI50 (HOP-62): 19.4 µM (inactive); GI50 (HOP-92): > 100 µM (inactive); GI50 (HT-29): > 100 µM (inactive); GI50 (Hs-578T): 23.8 µM (inactive); GI50 (IGROV-1): > 100 µM (inactive); GI50 (KM12): > 100 µM (inactive); GI50 (LOX IMVI): > 100 µM (inactive); GI50 (M14): > 100 µM (inactive); GI50 (MCF7): > 100 µM (inactive); GI50 (MDA-MB-231): 46.5 µM (inactive); GI50 (MDA-MB-435): > 100 µM (inactive); GI50 (MDA-N): > 100 µM (inactive); GI50 (MOLT-4): > 100 µM (inactive); GI50 (NCI-H23): > 100 µM (inactive); GI50 (NCI-H460): > 100 µM (inactive); GI50 (NCI-H522): > 100 µM (inactive); GI50 (NCI/ADR-RES): > 100 µM (inactive); GI50 (OVCAR-3): > 100 µM (inactive); GI50 (OVCAR-4): > 100 µM (inactive); GI50 (OVCAR-5): > 100 µM (inactive); GI50 (OVCAR-8): > 100 µM (inactive); GI50 (PC-3): > 100 µM (inactive); GI50 (RPMI-8226): > 100 µM (inactive); GI50 (SF-268): > 100 µM (inactive); GI50 (SF-539): 30 µM (inactive); GI50 (SK-MEL-28): > 100 µM (inactive); GI50 (SK-MEL-2): > 100 µM (inactive); GI50 (SK-MEL-5): > 100 µM (inactive); GI50 (SN12C): > 100 µM (inactive); GI50 (SNB-19): > 100 µM (inactive); GI50 (SNB-75): 21 µM (inactive); GI50 (SR): > 100 µM (inactive); GI50 (SW-620): > 100 µM (inactive); GI50 (T47D): > 100 µM (inactive); GI50 (TK-10): 94.8 µM (inactive); GI50 (U-251): 64.3 µM (inactive); GI50 (UACC-257): > 100 µM (inactive); GI50 (UACC-62): > 100 µM (inactive); GI50 (UO-31): > 100 µM (inactive)

Q: Which results are given for `Cn1nnc2c3c(N(CCO)CCO)ccnc3ccc21`?
A: GI50 (786-0): > 100 µM (inactive); GI50 (A549): > 100 µM (inactive); GI50 (ACHN): > 100 µM (inactive); GI50 (BT-549): > 100 µM (inactive); GI50 (CAKI-1): > 100 µM (inactive); GI50 (CCRF-CEM): > 100 µM (inactive); GI50 (COLO 205): 95.9 µM (inactive); GI50 (DU-145): > 100 µM (inactive); GI50 (EKVX): > 100 µM (inactive); GI50 (HCC 2998): 29.7 µM (inactive); GI50 (HCT-116): 54.2 µM (inactive); GI50 (HCT-15): > 100 µM; GI50 (HL-60): > 10 µM (inactive); GI50 (HOP-62): 47.2 µM (inactive); GI50 (HT-29): 89.3 µM (inactive); GI50 (Hs-578T): > 100 µM (inactive); GI50 (IGROV-1): > 100 µM (inactive); GI50 (K562): > 100 µM (inactive); GI50 (KM12): 97.5 µM (inactive); GI50 (LOX IMVI): > 100 µM (inactive); GI50 (M14): > 100 µM (inactive); GI50 (MCF7): 47.9 µM (inactive); GI50 (MDA-MB-231): > 100 µM (inactive); GI50 (MDA-MB-435): > 100 µM (inactive); GI50 (MDA-N): > 100 µM (inactive); GI50 (MOLT-4): 47.4 µM (inactive); GI50 (Malme-3M): > 100 µM (inactive); GI50 (NCI-H23): 97.9 µM (inactive); GI50 (NCI-H460): 39.9 µM (inactive); GI50 (NCI-H522): > 10 µM (inactive); GI50 (NCI/ADR-RES): > 100 µM (inactive); GI50 (OVCAR-3): > 100 µM (inactive); GI50 (OVCAR-4): > 100 µM (inactive); GI50 (OVCAR-5): > 100 µM (inactive); GI50 (OVCAR-8): > 100 µM (inactive); GI50 (PC-3): 65.6 µM (inactive); GI50 (RXF 393): > 100 µM (inactive); GI50 (SF-268): 87.5 µM (inactive); GI50 (SF-295): > 100 µM (inactive); GI50 (SF-539): 99.5 µM (inactive); GI50 (SK-MEL-2): > 100 µM (inactive); GI50 (SK-MEL-5): > 100 µM (inactive); GI50 (SK-OV-3): > 100 µM (inactive); GI50 (SN12C): > 100 µM (inactive); GI50 (SNB-19): 49.1 µM (inactive); GI50 (SNB-75): > 100 µM (inactive); GI50 (SR): 19.1 µM (inactive); GI50 (SW-620): > 100 µM (inactive); GI50 (T47D): 59.3 µM (inactive); GI50 (TK-10): > 100 µM (inactive); GI50 (UACC-257): > 100 µM (inactive); GI50 (UACC-62): > 100 µM (inactive); GI50 (UO-31): > 100 µM (inactive)
